Common to all, as to experiment: Anti-proliferative activity, cell-titre luminescent viability assay
What all share (type): cell-based

In one assay the test system is A549. The note with it: Homo sapiens, read-out: IC50 Lung (NSLC) A549. As to the method:
(§1) The ability of compounds 3501-3540 and 3542-3545 to inhibit the proliferation of cancer cells representative of neuroblastoma, melanoma, prostate cancer, colorectal cancer, non-small cell lung carcinoma, and triple negative breast cancer was assessed. Briefly, a pre-determined number of cells as calculated from cell growth assays for each of the cell lines employed were seeded into their respective culture medium (using ATCC culture parameters—http://www.atcc.org) and cultured for 24 hours at 37° C. and 5% CO2 in 96-well culture plates. Once attached, each cell line was then exposed to increasing concentrations of each respective analogue (0.03, 0.3, 3 and 30 μM for compounds in Table 1; 0.1, 0.3, 1, 3, 10 and 30 μM for compounds in Table 2), cultured for a further 72 hours and exposed to cell-titre luminescent reagent (100 μL/well) for a further 30 min) to assess for cell viability. Luminescence was captured using an EnVision multilabel reader and the data for each analogue concentration was normalized, as a percentage, to the no treatment control. For compounds 3501, 3503, 3505-08, 3512-18, 3520, 3522-24 and 3531-36, semi-log plots of Percent of Control versus concentration were prepared and IC50 determined using linear regression analysis. For compounds 3502, 3504, 3509-11, 3519, 3521, 3525-30, 3537-40 and 3542-45, cell viability was normalized to control (vehicle alone) and dose-response curves, and half maximal effective concentration (EC50) values were determined using Graph Pad Prism 6 (nonlinear regression sigmoidal dose-response variable slope).

The next assay relates to CaCo2. The note with it: Homo sapiens, read-out: IC50 Colorectal CaCo2. On the procedure: as §1
Another assay concerns DU145. The note with it: Homo sapiens, read-out: IC50 Prostate DU145. On the procedure:
as §1

For the next assay, the system named is MDA-MB-231. The conditions noted are these: Homo sapiens, read-out: IC50 Breast MDA-MB-231. As to the method:
as §1

For another assay, the system named is PC3. The conditions noted are these: Homo sapiens, read-out: IC50 Prostate PC3. On the procedure: as §1
The test system of another assay is SK-Mel-28. The conditions noted are these: Homo sapiens, SK-MEL-28, 72 hours, read-out: IC50 Melanoma SK-Mel-28. As to the method: as §1
In another assay the test system is SK-N-SH. The note with it: Homo sapiens, SK-N-SH, read-out: IC50 Neuroblastoma SK-N-SH. On the procedure: as §1
The mark [1] stands for this setting: A549, 72 h, 0.03, 0.3, 3 and 30 μM, linear regression of semi-log plots.
[2] abbreviates: Caco-2, 72 h, 0.03, 0.3, 3 and 30 μM, linear regression of semi-log plots.
Where [3] appears, read: DU-145, 72 h, 0.03, 0.3, 3 and 30 μM, linear regression of semi-log plots.
Setting [4] is: MDA-MB-231, 72 h, 0.03, 0.3, 3 and 30 μM, linear regression of semi-log plots.
Setting [5] is: PC-3, 72 h, 0.03, 0.3, 3 and 30 μM, linear regression of semi-log plots.
The mark [6] stands for this setting: 0.03, 0.3, 3 and 30 μM, linear regression of semi-log plots.
[7] abbreviates: 72 h, 0.03, 0.3, 3 and 30 μM, linear regression of semi-log plots.
[8] abbreviates: A549, 72 h, 0.1, 0.3, 1, 3, 10 and 30 μM, nonlinear regression sigmoidal dose-response (EC50).
The mark [9] stands for this setting: Caco-2, 72 h, 0.1, 0.3, 1, 3, 10 and 30 μM, nonlinear regression sigmoidal dose-response (EC50).
Setting [10] is: DU-145, 72 h, 0.1, 0.3, 1, 3, 10 and 30 μM, nonlinear regression sigmoidal dose-response (EC50).
The mark [11] stands for this setting: MDA-MB-231, 72 h, 0.1, 0.3, 1, 3, 10 and 30 μM, nonlinear regression sigmoidal dose-response (EC50).
The mark [12] stands for this setting: PC-3, 72 h, 0.1, 0.3, 1, 3, 10 and 30 μM, nonlinear regression sigmoidal dose-response (EC50).
The mark [13] stands for this setting: 0.1, 0.3, 1, 3, 10 and 30 μM, nonlinear regression sigmoidal dose-response (EC50).
[14] abbreviates: 72 h, 0.1, 0.3, 1, 3, 10 and 30 μM, nonlinear regression sigmoidal dose-response (EC50).

Read-outs that look alike come from different tables or passages of the source.

As for `Cc1c(C)n(CCCN2CCN(C)CC2)c2ccc(Cc3cccc(C(=O)N4CCN(CCc5ccc(F)cc5)CC4)c3)cc12` [Compound 3501, (3-((2,3-dimethyl-1-(3-(4-methylpiperazin-1-yl)propyl)-1H-indol-5-yl)methyl)phenyl)(4-(4-fluorophenethyl)piperazin-1-yl)methanone], the IC50 (as a rule, the point on the concentration scale where inhibition reaches its midpoint) in the assay with A549 (setting [1]) amounted to 3.7 µM; in the assay on CaCo2 (setting [2]), 3.1 µM; with DU145 (setting [3]), 2.6 µM; with MDA-MB-231 (setting [4]), 2.1 µM; with PC3 (setting [5]), 2.4 µM; in the assay with SK-Mel-28 (setting [6]), 1.3 µM. In addition, in the assay with SK-N-SH (setting [7]), the IC50 was found to be 3.1 µM.
For the molecule `COc1ccc(CCN2CCN(C(=O)c3cccc(Cc4ccc5c(c4)c(C)c(C)n5CCCN4CCN(C)CC4)c3)CC2)cc1` [Compound 3502, (3-((2,3-dimethyl-1-(3-(4-methylpiperazin-1-yl)propyl)-1H-indol-5-yl)methyl)phenyl)(4-(4-methoxyphenethyl)piperazin-1-yl)methanone], the IC50 in the assay on A549 (setting [8]) was found to be 5 µM; with CaCo2 (setting [9]), 5.8 µM; with DU145 (setting [10]) it was 4.9 µM; with MDA-MB-231 (setting [11]), 4.9 µM; with PC3 (setting [12]), 5.4 µM; in the assay with SK-Mel-28 (setting [13]), 2.6 µM. Further, in the assay with SK-N-SH (setting [14]), the IC50 was 4.6 µM.
As for `Cc1c(C)n(CCCN2CCN(C)CC2)c2ccc(Cc3cccc(C(=O)N4CCN(CCc5ccc6c(c5)OCO6)CC4)c3)cc12` [Compound 3503, (4-(2-(benzo[d][1,3]dioxol-5-yl)ethyl)piperazin-1-yl)(3-((2,3-dimethyl-1-(3-(4-methylpiperazin-1-yl)propyl)-1H-indol-5-yl)methyl)phenyl)methanone], the IC50 with A549 (setting [1]) turned out to be 1.4 µM; in the assay with CaCo2 (setting [2]), 3.4 µM; in the assay on DU145 (setting [3]), 2.1 µM; with MDA-MB-231 (setting [4]), 1 µM; with PC3 (setting [5]) it was 2.4 µM; with SK-Mel-28 (setting [6]), 1 µM. For the same molecule, in the assay on SK-N-SH (setting [7]), the IC50 was 2.1 µM.
On to `COc1cccc(CCN2CCN(C(=O)c3cccc(Cc4ccc5c(c4)c(C)c(C)n5CCCN4CCN(C)CC4)c3)CC2)c1` [Compound 3505, (3-((2,3-dimethyl-1-(3-(4-methylpiperazin-1-yl)propyl)-1H-indol-5-yl)methyl)phenyl)(4-(3-methoxyphenethyl)piperazin-1-yl)methanone], for which the IC50 with A549 (setting [1]) is 3.1 µM; in the assay on CaCo2 (setting [2]) it was 3.6 µM; in the assay with DU145 (setting [3]), 3.4 µM; in the assay with MDA-MB-231 (setting [4]) it was 2.8 µM; in the assay on PC3 (setting [5]) it was 2.6 µM; with SK-Mel-28 (setting [6]), 2.5 µM. Further, the IC50 in the assay with SK-N-SH (setting [7]) turned out to be 2.6 µM.
On to `Cc1c(C)n(CCCN2CCN(C)CC2)c2ccc(Cc3cccc(C(=O)N4CCN(CCc5ccccc5)CC4)c3)cc12` [Compound 3506, (3-((2,3-dimethyl-1-(3-(4-methylpiperazin-1-yl)propyl)-1H-indol-5-yl)methyl)phenyl)(4-phenethylpiperazin-1-yl)methanone], for which the IC50 was determined as 3 µM in the assay on A549 (setting [1]); 2.7 µM in the assay on CaCo2 (setting [2]); 3.2 µM in the assay with DU145 (setting [3]); 1.9 µM in the assay with MDA-MB-231 (setting [4]); 2.1 µM with PC3 (setting [5]); 1.3 µM in the assay on SK-Mel-28 (setting [6]). The 50% inhibitory concentration (IC50) in the assay with SK-N-SH (setting [7]) stood at 3.7 µM.
Regarding `COc1ccc(CCN2CCN(C(=O)c3cccc(Oc4ccc5c(c4)c(C)c(C)n5CCCN4CCN(C)CC4)c3)CC2)cc1` [Compound 3508, (3-((2,3-dimethyl-1-(3-(4-methylpiperazin-1-yl)propyl)-1H-indol-5-yl)oxy)phenyl)(4-(4-methoxyphenethyl)piperazin-1-yl)methanone], the half-inhibitory concentration (IC50) in the assay on A549 (setting [1]) was found to be 1.8 µM; with CaCo2 (setting [2]) it was 3.1 µM; in the assay with DU145 (setting [3]), 3.1 µM; in the assay with MDA-MB-231 (setting [4]), 1.8 µM; in the assay on PC3 (setting [5]) it was 2.4 µM; with SK-Mel-28 (setting [6]) it was 1.6 µM. The half-maximal inhibitory concentration (IC50) with SK-N-SH (setting [7]) came out at 1.7 µM.
Consider `Cc1c(C)n(CCCN2CCN(C)CC2)c2ccc(Oc3cccc(C(=O)N4CCN(CCc5ccc6c(c5)OCO6)CC4)c3)cc12` [Compound 3509, (4-(2-(benzo[d][1,3]dioxol-5-yl)ethyl)piperazin-1-yl)(3-((2,3-dimethyl-1-(3-(4-methylpiperazin-1-yl)propyl)-1H-indol-5-yl)oxy)phenyl)methanone], for which the IC50 was 4.7 µM with A549 (setting [8]); 5.2 µM in the assay on CaCo2 (setting [9]); 5.9 µM in the assay with DU145 (setting [10]); 5 µM in the assay with MDA-MB-231 (setting [11]); 6.9 µM with PC3 (setting [12]); 5.1 µM in the assay on SK-Mel-28 (setting [13]). The half-inhibitory concentration (IC50) with SK-N-SH (setting [14]) turned out to be 5.3 µM.
For `Cc1c(C)n(CCCN2CCN(C)CC2)c2ccc(Oc3cccc(C(=O)N4CCN(CCc5cccc(F)c5)CC4)c3)cc12` [Compound 3510, (3-((2,3-dimethyl-1-(3-(4-methylpiperazin-1-yl)propyl)-1H-indol-5-yl)oxy)phenyl)(4-(3-fluorophenethyl)piperazin-1-yl)methanone], the IC50 in the assay with A549 (setting [8]) was 6 µM; with CaCo2 (setting [9]), 5.8 µM; in the assay with DU145 (setting [10]) it was 8 µM; in the assay on MDA-MB-231 (setting [11]), 20.4 µM; in the assay on PC3 (setting [12]), 8 µM; in the assay with SK-Mel-28 (setting [13]), 4.9 µM. Further, the IC50 in the assay with SK-N-SH (setting [14]) is 4.6 µM.
On to `COc1cccc(CCN2CCN(C(=O)c3cccc(Oc4ccc5c(c4)c(C)c(C)n5CCCN4CCN(C)CC4)c3)CC2)c1` [Compound 3511, (3-((2,3-dimethyl-1-(3-(4-methylpiperazin-1-yl)propyl)-1H-indol-5-yl)oxy)phenyl)(4-(3-methoxyphenethyl)piperazin-1-yl)methanone], for which the IC50 in the assay with A549 (setting [8]) came out at 2.6 µM; in the assay with CaCo2 (setting [9]), 3.5 µM; in the assay with DU145 (setting [10]), 3.3 µM; in the assay on MDA-MB-231 (setting [11]), 19.3 µM; with PC3 (setting [12]) it was 2.6 µM; in the assay with SK-Mel-28 (setting [13]) it was 6.5 µM. In addition, the IC50 with SK-N-SH (setting [14]) is 2.1 µM.
`Cc1c(C)n(CCCN2CCN(C)CC2)c2ccc(Oc3cccc(C(=O)N4CCN(CCc5ccccc5)CC4)c3)cc12` [Compound 3512, (3-((2,3-dimethyl-1-(3-(4-methylpiperazin-1-yl)propyl)-1H-indol-5-yl)oxy)phenyl)(4-phenethylpiperazin-1-yl)methanone]: the IC50 with A549 (setting [1]) came out at 1.3 µM; with CaCo2 (setting [2]), 3.2 µM; in the assay with DU145 (setting [3]), 1.3 µM; in the assay with MDA-MB-231 (setting [4]) it was 1.2 µM; in the assay on PC3 (setting [5]) it was 2.1 µM; with SK-Mel-28 (setting [6]), 0.7 µM. In the assay on SK-N-SH (setting [7]), the IC50 is 1.8 µM.
For the molecule `Cc1c(C)n(CCCN2CCN(C)CC2)c2ccc(Nc3cccc(C(=O)N4CCN(CCc5ccc(F)cc5)CC4)c3)cc12` [Compound 3513, (3-((2,3-dimethyl-1-(3-(4-methylpiperazin-1-yl)propyl)-1H-indol-5-yl)amino)phenyl)(4-(4-fluorophenethyl)piperazin-1-yl)methanone], the IC50 in the assay on A549 (setting [1]) came out at 3.3 µM; in the assay with CaCo2 (setting [2]) it was 3.1 µM; in the assay with DU145 (setting [3]) it was 3.8 µM; in the assay on MDA-MB-231 (setting [4]), 3.6 µM; with PC3 (setting [5]), 4 µM; with SK-Mel-28 (setting [6]) it was 3.4 µM. In the assay on SK-N-SH (setting [7]), the IC50 is 3.3 µM.
For the molecule `COc1ccc(CCN2CCN(C(=O)c3cccc(Nc4ccc5c(c4)c(C)c(C)n5CCCN4CCN(C)CC4)c3)CC2)cc1` [Compound 3514, (3-((2,3-dimethyl-1-(3-(4-methylpiperazin-1-yl)propyl)-1H-indol-5-yl)amino)phenyl)(4-(4-methoxyphenethyl)piperazin-1-yl)methanone], the IC50 was 1.4 µM in the assay with A549 (setting [1]); 3.1 µM in the assay on CaCo2 (setting [2]); 3.8 µM in the assay with DU145 (setting [3]); 1.3 µM with MDA-MB-231 (setting [4]); 3.5 µM with PC3 (setting [5]); 1.3 µM with SK-Mel-28 (setting [6]). In the assay with SK-N-SH (setting [7]), the concentration for half-maximal inhibition (IC50) is 1.3 µM.
